Data taken from PMC7313537 (PLoS ONE, 2020).

Experiments:
Assay in all cases: Broader kinase panel (PerkinElmer)
Type in all cases: biochemical
Conditions in all cases: 100 nM; read-out: Average Percent Inhibition
LYN = target: T1, LYN (Homo sapiens, UniProt P07948)
T1 construct: purchased In-house HTRF panel (56 kinases) and PerkinElmer (161-kinase panel)
Source text: (§1) […]. […] […].

IKK-beta = target: T2, IKK-beta (Homo sapiens, UniProt O14920)
T2 construct: purchased In-house HTRF panel (56 kinases) and PerkinElmer (161-kinase panel)
Source text: as §1

Hck = target: T3, Hck (Homo sapiens, UniProt P08631)
T3 construct: purchased In-house HTRF panel (56 kinases) and PerkinElmer (161-kinase panel)
Source text: as §1

RSK2 = RSK2 (Homo sapiens, UniProt P51812)
Source text: as §1

PAK3 = target: T4, PAK3 (Homo sapiens, UniProt O75914)
T4 construct: purchased In-house HTRF panel (56 kinases) and PerkinElmer (161-kinase panel)
Source text: as §1

LYNB = target: T5, LYNB (Homo sapiens, UniProt P07948)
T5 construct: purchased In-house HTRF panel (56 kinases) and PerkinElmer (161-kinase panel)
Source text: as §1

PHKG2 = target: T6, PHKG2 (Homo sapiens, UniProt P15735)
T6 construct: purchased In-house HTRF panel (56 kinases) and PerkinElmer (161-kinase panel)
Source text: as §1

MET M1250T = target: T7, MET M1250T (Homo sapiens, UniProt P08581, M1250T)
T7 construct: purchased In-house HTRF panel (56 kinases) and PerkinElmer (161-kinase panel)
Source text: as §1

Fer = target: T8, Fer (Homo sapiens, UniProt P16591)
T8 construct: purchased In-house HTRF panel (56 kinases) and PerkinElmer (161-kinase panel)
Source text: as §1

DYRK3 = target: T9, DYRK3 (Homo sapiens, UniProt O43781)
T9 construct: purchased In-house HTRF panel (56 kinases) and PerkinElmer (161-kinase panel)
Source text: as §1

Casein kinase 1g2 = target: T10, Casein kinase 1g2 (Homo sapiens, UniProt P78368)
T10 construct: purchased In-house HTRF panel (56 kinases) and PerkinElmer (161-kinase panel)
Source text: as §1

LCK = LCK (Homo sapiens, UniProt P06239)
Source text: as §1

INSR = target: T11, INSR (Homo sapiens, UniProt P06213)
T11 construct: purchased In-house HTRF panel (56 kinases) and PerkinElmer (161-kinase panel)
Source text: as §1

CamK1d = target: T12, CamK1d (Homo sapiens, UniProt Q8IU85)
T12 construct: purchased In-house HTRF panel (56 kinases) and PerkinElmer (161-kinase panel)
Source text: as §1

FGR = target: T13, FGR (Homo sapiens, UniProt P09769)
T13 construct: purchased In-house HTRF panel (56 kinases) and PerkinElmer (161-kinase panel)
Source text: as §1

HGK = target: T14, HGK (Homo sapiens, UniProt O95819)
T14 construct: purchased In-house HTRF panel (56 kinases) and PerkinElmer (161-kinase panel)
Source text: as §1

PKC-eta = target: T15, PKC-eta (Homo sapiens, UniProt P24723)
T15 construct: purchased In-house HTRF panel (56 kinases) and PerkinElmer (161-kinase panel)
Source text: as §1

NEK1 = target: T16, NEK1 (Homo sapiens, UniProt Q96PY6)
T16 construct: purchased In-house HTRF panel (56 kinases) and PerkinElmer (161-kinase panel)
Source text: as §1

KIT[T670I] = target: T17, KIT[T670I] (Homo sapiens, UniProt P10721, T670I)
T17 construct: purchased In-house HTRF panel (56 kinases) and PerkinElmer (161-kinase panel)
Source text: as §1

PIM3 = target: T18, PIM3 (Homo sapiens, UniProt Q86V86)
T18 construct: purchased In-house HTRF panel (56 kinases) and PerkinElmer (161-kinase panel)
Source text: as §1

MNK1 (MKNK1) = target: T19, MNK1 (MKNK1) (Homo sapiens, UniProt Q9BUB5)
T19 construct: purchased In-house HTRF panel (56 kinases) and PerkinElmer (161-kinase panel)
Source text: as §1

CDK2 = CDK2 (Homo sapiens, UniProt P24941)
Source text: as §1

PhKg1 = target: T20, PhKg1 (Homo sapiens, UniProt Q16816)
T20 construct: purchased In-house HTRF panel (56 kinases) and PerkinElmer (161-kinase panel)
Source text: as §1

ROCK2 = target: T21, ROCK2 (Homo sapiens, UniProt O75116)
T21 construct: purchased In-house HTRF panel (56 kinases) and PerkinElmer (161-kinase panel)
Source text: as §1

Ca MKII_gamma = target: T22, Ca MKII_gamma (Homo sapiens, UniProt Q13555)
T22 construct: purchased In-house HTRF panel (56 kinases) and PerkinElmer (161-kinase panel)
Source text: as §1

MST1R = target: T23, MST1R (Homo sapiens, UniProt Q04912)
T23 construct: purchased In-house HTRF panel (56 kinases) and PerkinElmer (161-kinase panel)
Source text: as §1

EPHA4 = target: T24, EPHA4 (Homo sapiens, UniProt P54764)
T24 construct: purchased In-house HTRF panel (56 kinases) and PerkinElmer (161-kinase panel)
Source text: as §1

HER4 = target: T25, HER4 (Homo sapiens, UniProt Q15303)
T25 construct: purchased In-house HTRF panel (56 kinases) and PerkinElmer (161-kinase panel)
Source text: as §1

KIT = target: T26, KIT (Homo sapiens, UniProt P10721)
T26 construct: purchased In-house HTRF panel (56 kinases) and PerkinElmer (161-kinase panel)
Source text: as §1

BRSK1 = target: T27, BRSK1 (Homo sapiens, UniProt Q8TDC3)
T27 construct: purchased In-house HTRF panel (56 kinases) and PerkinElmer (161-kinase panel)
Source text: as §1

ITK = target: T28, ITK (Homo sapiens, UniProt Q08881)
T28 construct: purchased In-house HTRF panel (56 kinases) and PerkinElmer (161-kinase panel)
Source text: as §1

IGF1R = IGF1R (Homo sapiens, UniProt P08069)
Source text: as §1

SRC = target: T29, SRC (Homo sapiens, UniProt P12931)
T29 construct: purchased In-house HTRF panel (56 kinases) and PerkinElmer (161-kinase panel)
Source text: as §1

CHK2 = target: T30, CHK2 (Homo sapiens, UniProt O96017)
T30 construct: purchased In-house HTRF panel (56 kinases) and PerkinElmer (161-kinase panel)
Source text: as §1

PIM2 = target: T31, PIM2 (Homo sapiens, UniProt Q9P1W9)
T31 construct: purchased In-house HTRF panel (56 kinases) and PerkinElmer (161-kinase panel)
Source text: as §1

FYN = target: T32, FYN (Homo sapiens, UniProt P06241)
T32 construct: purchased In-house HTRF panel (56 kinases) and PerkinElmer (161-kinase panel)
Source text: as §1

c-TAK1 = target: T33, c-TAK1 (Homo sapiens, UniProt P27448)
T33 construct: purchased In-house HTRF panel (56 kinases) and PerkinElmer (161-kinase panel)
Source text: as §1

Mer = target: T34, Mer (Homo sapiens, UniProt Q12866)
T34 construct: purchased In-house HTRF panel (56 kinases) and PerkinElmer (161-kinase panel)
Source text: as §1

p38-delta = target: T35, p38-delta (Homo sapiens, UniProt O15264)
T35 construct: purchased In-house HTRF panel (56 kinases) and PerkinElmer (161-kinase panel)
Source text: as §1

Ret (V804L) = target: T36, Ret (V804L) (Homo sapiens, UniProt P07949, V804L)
T36 construct: purchased In-house HTRF panel (56 kinases) and PerkinElmer (161-kinase panel)
Source text: as §1

MARK1 = target: T37, MARK1 (Homo sapiens, UniProt Q9P0L2)
T37 construct: purchased In-house HTRF panel (56 kinases) and PerkinElmer (161-kinase panel)
Source text: as §1

PRKCI (PKC-iota) = target: T38, PRKCI (PKC-iota) (Homo sapiens, UniProt P41743)
T38 construct: purchased In-house HTRF panel (56 kinases) and PerkinElmer (161-kinase panel)
Source text: as §1

PDGFRA (D842V) = target: T39, PDGFRA (D842V) (Homo sapiens, UniProt P16234, D842V)
T39 construct: purchased In-house HTRF panel (56 kinases) and PerkinElmer (161-kinase panel)
Source text: as §1

T19 sequence (Q9BUB5 whole entry): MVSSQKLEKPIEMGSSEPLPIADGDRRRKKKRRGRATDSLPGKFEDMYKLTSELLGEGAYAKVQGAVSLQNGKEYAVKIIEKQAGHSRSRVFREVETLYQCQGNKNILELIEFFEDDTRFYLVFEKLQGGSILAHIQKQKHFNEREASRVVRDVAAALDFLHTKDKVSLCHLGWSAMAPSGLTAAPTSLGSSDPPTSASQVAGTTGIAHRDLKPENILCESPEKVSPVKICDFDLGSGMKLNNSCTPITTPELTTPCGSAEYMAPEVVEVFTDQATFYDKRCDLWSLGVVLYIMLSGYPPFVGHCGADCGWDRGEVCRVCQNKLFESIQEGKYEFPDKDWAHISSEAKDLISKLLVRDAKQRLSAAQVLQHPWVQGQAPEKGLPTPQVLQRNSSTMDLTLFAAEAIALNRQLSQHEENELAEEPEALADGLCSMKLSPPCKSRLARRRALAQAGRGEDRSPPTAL
T27 sequence (Q8TDC3 whole entry): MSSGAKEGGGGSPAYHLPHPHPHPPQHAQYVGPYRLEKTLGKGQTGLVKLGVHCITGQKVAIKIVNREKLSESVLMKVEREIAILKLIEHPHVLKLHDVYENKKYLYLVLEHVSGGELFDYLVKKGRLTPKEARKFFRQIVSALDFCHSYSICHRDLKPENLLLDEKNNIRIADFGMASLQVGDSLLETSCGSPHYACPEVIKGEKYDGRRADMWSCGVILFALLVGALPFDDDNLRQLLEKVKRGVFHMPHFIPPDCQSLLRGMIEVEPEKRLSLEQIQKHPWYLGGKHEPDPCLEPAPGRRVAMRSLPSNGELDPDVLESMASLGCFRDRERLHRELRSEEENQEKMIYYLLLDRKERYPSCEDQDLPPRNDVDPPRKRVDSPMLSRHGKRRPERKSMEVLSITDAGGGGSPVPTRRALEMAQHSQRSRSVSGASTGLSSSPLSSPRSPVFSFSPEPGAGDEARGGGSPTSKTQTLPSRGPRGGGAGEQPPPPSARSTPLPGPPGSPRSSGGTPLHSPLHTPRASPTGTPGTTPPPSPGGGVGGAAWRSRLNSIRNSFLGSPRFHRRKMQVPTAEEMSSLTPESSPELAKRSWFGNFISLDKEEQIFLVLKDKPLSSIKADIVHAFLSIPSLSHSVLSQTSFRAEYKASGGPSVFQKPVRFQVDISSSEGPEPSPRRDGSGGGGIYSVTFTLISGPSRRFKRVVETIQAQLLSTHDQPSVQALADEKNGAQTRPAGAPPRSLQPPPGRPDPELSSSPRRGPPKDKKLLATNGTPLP
Chain of RSK2 (P51812 whole entry, species assumed): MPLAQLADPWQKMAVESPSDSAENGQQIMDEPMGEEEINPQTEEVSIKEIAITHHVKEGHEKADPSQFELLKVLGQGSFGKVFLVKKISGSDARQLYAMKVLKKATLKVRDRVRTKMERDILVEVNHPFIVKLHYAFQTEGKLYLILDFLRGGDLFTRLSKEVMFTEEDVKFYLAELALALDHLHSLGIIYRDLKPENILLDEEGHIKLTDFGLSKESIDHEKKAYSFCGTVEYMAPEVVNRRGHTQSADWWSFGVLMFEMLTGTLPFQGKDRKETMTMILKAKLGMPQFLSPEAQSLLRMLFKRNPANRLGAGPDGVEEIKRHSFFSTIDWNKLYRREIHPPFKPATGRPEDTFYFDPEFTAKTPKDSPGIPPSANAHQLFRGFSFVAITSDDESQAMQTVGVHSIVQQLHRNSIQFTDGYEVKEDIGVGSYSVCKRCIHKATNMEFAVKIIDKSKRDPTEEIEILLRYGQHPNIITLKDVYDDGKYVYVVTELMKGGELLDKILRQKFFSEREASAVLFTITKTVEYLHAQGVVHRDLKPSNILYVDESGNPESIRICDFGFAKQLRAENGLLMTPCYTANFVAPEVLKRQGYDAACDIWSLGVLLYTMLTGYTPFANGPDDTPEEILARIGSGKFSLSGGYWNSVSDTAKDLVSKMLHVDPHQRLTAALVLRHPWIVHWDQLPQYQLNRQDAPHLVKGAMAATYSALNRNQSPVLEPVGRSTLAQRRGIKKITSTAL
T22 sequence (Q13555 whole entry): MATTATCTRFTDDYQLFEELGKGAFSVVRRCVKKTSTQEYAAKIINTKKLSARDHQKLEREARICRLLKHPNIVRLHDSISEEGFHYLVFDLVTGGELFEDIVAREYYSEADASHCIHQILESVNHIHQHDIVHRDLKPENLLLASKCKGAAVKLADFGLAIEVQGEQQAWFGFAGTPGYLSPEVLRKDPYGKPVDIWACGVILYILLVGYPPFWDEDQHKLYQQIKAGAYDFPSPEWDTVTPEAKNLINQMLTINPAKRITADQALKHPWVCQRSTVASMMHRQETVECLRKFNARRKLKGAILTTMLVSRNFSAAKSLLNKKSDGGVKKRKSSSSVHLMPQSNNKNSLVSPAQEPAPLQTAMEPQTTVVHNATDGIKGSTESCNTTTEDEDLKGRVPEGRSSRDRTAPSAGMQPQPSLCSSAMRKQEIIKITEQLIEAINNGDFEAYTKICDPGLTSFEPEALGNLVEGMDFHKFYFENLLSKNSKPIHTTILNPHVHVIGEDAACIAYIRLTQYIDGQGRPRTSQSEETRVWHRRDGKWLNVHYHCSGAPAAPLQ
T32 sequence (P06241 whole entry): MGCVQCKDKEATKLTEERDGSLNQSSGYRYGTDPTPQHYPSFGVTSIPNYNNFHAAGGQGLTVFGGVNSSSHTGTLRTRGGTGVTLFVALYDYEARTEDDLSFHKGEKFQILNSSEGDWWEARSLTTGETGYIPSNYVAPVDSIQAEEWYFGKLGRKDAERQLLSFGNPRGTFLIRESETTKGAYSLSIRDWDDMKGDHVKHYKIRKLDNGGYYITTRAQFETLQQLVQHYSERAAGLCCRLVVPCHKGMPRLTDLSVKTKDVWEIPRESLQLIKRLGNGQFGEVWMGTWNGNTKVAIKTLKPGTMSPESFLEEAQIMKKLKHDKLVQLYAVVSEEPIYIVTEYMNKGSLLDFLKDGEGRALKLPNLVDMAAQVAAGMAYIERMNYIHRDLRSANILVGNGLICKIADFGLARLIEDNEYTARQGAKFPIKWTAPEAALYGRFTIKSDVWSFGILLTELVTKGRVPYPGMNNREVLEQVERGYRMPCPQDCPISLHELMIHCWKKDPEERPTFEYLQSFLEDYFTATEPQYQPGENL
T1 sequence (P07948 whole entry): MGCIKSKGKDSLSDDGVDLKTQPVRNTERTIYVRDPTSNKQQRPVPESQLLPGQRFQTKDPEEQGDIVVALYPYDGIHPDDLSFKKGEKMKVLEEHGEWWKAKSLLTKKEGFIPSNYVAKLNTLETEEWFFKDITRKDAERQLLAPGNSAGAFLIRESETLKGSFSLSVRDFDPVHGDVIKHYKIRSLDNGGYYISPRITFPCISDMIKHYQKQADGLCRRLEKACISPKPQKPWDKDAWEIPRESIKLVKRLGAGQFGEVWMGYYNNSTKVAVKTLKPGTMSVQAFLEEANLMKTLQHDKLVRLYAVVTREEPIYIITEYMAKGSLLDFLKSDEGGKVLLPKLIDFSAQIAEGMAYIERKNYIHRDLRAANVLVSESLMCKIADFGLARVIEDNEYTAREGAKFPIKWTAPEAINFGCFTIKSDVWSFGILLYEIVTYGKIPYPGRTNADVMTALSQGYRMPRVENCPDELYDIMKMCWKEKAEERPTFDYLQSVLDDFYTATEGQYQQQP
T37 sequence (Q9P0L2 whole entry): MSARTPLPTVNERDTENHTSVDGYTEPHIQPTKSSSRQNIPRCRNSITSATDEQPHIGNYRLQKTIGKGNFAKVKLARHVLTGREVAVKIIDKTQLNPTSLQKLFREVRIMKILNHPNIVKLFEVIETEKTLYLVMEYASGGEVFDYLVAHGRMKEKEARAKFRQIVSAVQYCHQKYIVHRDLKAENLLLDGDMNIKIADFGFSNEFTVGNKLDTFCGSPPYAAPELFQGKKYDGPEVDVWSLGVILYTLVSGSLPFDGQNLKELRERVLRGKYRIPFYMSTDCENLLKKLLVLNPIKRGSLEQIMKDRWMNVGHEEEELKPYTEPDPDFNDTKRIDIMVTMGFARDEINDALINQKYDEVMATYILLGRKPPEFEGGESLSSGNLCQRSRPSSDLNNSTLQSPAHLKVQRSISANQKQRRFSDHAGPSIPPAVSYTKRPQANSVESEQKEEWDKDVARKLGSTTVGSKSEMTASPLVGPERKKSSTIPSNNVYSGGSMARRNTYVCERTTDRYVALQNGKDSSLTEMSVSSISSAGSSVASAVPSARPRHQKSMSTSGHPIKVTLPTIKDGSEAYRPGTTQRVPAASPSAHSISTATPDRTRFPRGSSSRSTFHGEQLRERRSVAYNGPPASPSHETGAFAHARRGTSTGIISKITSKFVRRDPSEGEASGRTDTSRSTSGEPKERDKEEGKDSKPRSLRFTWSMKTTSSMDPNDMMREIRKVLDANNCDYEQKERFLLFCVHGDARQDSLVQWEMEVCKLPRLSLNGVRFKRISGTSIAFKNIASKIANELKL
T9 sequence (O43781 whole entry): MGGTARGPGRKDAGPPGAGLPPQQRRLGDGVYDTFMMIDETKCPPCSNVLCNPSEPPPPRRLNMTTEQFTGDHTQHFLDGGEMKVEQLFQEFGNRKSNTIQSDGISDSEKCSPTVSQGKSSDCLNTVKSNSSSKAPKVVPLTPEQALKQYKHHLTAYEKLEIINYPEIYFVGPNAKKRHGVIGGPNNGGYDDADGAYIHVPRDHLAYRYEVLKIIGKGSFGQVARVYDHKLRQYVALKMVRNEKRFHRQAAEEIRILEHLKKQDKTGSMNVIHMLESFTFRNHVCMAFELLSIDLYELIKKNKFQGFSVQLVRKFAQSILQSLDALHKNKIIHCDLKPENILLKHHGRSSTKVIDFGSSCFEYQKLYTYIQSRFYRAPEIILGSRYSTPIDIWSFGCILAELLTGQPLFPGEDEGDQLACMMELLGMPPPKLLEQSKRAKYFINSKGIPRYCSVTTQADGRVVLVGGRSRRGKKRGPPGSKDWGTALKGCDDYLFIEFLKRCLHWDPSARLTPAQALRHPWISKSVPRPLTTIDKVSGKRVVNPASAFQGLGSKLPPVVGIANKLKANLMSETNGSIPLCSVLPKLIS

SMILES: CCN1C(=O)N(c2c(F)c(OC)cc(OC)c2F)Cc2cnc3[nH]c(CN4CCOCC4)cc3c21 [INCB054828, pemigatinib]
- inhibition at 0.1 µM (LYN): 14%
- inhibition at 0.1 µM (IKK-beta): 4%
- inhibition at 0.1 µM (Hck): -3%
- inhibition at 0.1 µM (RSK2): -2%
- inhibition at 0.1 µM (PAK3): -2%
- inhibition at 0.1 µM (LYNB): 9%
- inhibition at 0.1 µM (PHKG2): -1%
- inhibition at 0.1 µM (MET M1250T): 1%
- inhibition at 0.1 µM (Fer): 17%
- inhibition at 0.1 µM (DYRK3): 0%
- inhibition at 0.1 µM (Casein kinase 1g2): -1%
- inhibition at 0.1 µM (LCK): -2%
- inhibition at 0.1 µM (INSR): 1%
- inhibition at 0.1 µM (CamK1d): 14%
- inhibition at 0.1 µM (FGR): 3%
- inhibition at 0.1 µM (HGK): -6%
- inhibition at 0.1 µM (PKC-eta): -4%
- inhibition at 0.1 µM (NEK1): 1%
- inhibition at 0.1 µM (KIT[T670I]): -2%
- inhibition at 0.1 µM (PIM3): -4%
- inhibition at 0.1 µM (MNK1 (MKNK1)): 6%
- inhibition at 0.1 µM (CDK2): -2%
- inhibition at 0.1 µM (PhKg1): -2%
- inhibition at 0.1 µM (ROCK2): 5%
- inhibition at 0.1 µM (Ca MKII_gamma): -9%
- inhibition at 0.1 µM (MST1R): 1%
- inhibition at 0.1 µM (EPHA4): 3%
- inhibition at 0.1 µM (HER4): -15%
- inhibition at 0.1 µM (KIT): 4%
- inhibition at 0.1 µM (BRSK1): -4%
- inhibition at 0.1 µM (ITK): 2%
- inhibition at 0.1 µM (IGF1R): 1%
- inhibition at 0.1 µM (SRC): 1%
- inhibition at 0.1 µM (CHK2): 4%
- inhibition at 0.1 µM (PIM2): -5%
- inhibition at 0.1 µM (FYN): -1%
- inhibition at 0.1 µM (c-TAK1): 2%
- inhibition at 0.1 µM (Mer): -1%
- inhibition at 0.1 µM (p38-delta): 2%
- inhibition at 0.1 µM (Ret (V804L)): 0%
- inhibition at 0.1 µM (MARK1): 10%
- inhibition at 0.1 µM (PRKCI (PKC-iota)): 3%
- inhibition at 0.1 µM (PDGFRA (D842V)): 18%
